Measured values taken from US4889634A, “Dialysate solution containing hydroxypropyl-beta-cyclodextrin and method of using same” (priority 1988, dated 1989).

What was measured:
laboratory animals = conditions: cited from earlier work
normal rats = assay: relative nephrotoxicity of HPBCD and BCD, intraperitoneal; format: in vivo, rat; conditions: for Mortality (died/total): BCD 0.75% w/v, HPBCD 1.5 and 3% w/v, 15 ml/100 g i.p.; for Rats died of kidney failure: in words
Description: (§1) A first study was conducted to determine the relative nephrotoxicity of HPBCD and BCD. A control group using phosphate buffer solution was also included in the study.
(§2) Three groups of normal rats were utilized in this study. […] Group I rats were given the vehicle solution of phosphate buffer saline (PBS). Group II rats were subdivided into three sub-groups. The first sub-group received a solution having a concentration of 1.5% HPBCD, the second sub-group received a solution having a concentration of 3% HPBCD while the third sub-group received a solution having a concentration of 6% HPBCD. Group III rats were given a solution having a concentration of 0.75% BCD.
(§3) Animals from each group were sacrificed at 24 and 72 hours after injection of the peritoneal solution. The animals were sacrificed under general anesthesia and exsanguinated from the abdominal aorta. Plasma was separated and blood urea nitrogen and creatinine was measured and used as an index of renal toxicity of the solutions.

[1] = as above; format: in vivo, rat; conditions: rat, in vivo, ip, BCD 0.75%
Description: as §1, §2, §3

[2] = 1 day, BCD 0.75%, HPBCD 1.5 and 3%
[3] = 3 day, BCD 0.75%, HPBCD 1.5 and 3%

OC[C@H]1O[C@@H]2O[C@H]3[C@H](O)[C@@H](O)[C@@H](O[C@H]4[C@H](O)[C@@H](O)[C@@H](O[C@H]5[C@H](O)[C@@H](O)[C@@H](O[C@H]6[C@H](O)[C@@H](O)[C@@H](O[C@H]7[C@H](O)[C@@H](O)[C@@H](O[C@H]8[C@H](O)[C@@H](O)[C@@H](O[C@H]1[C@H](O)[C@H]2O)O[C@@H]8CO)O[C@@H]7CO)O[C@@H]6CO)O[C@@H]5CO)O[C@@H]4CO)O[C@@H]3CO [BCD, beta-cyclodextrin]
Renal toxicity (kidney enlargement, death) (laboratory animals; laboratory animals, reports in literature): enlargement of the kidneys and death due to kidney failure | Toxicity at high concentrations (laboratory animals; rat, in vivo): toxic | Removal of intravenously administered toxins (laboratory animals; rats, peritoneal dialysate, Perrin et al.): accelerate the removal of intravenously administered toxins in rats | Mortality (died/total) (normal rats; 1 day): 1/6 | Kidney size (normal rats; [2]): enlarged | Kidney weight (normal rats; [2]): increased | BUN (normal rats; 1 day, BCD 0.75%, HPBCD 1.5 and 3%, Table III): 79.4 mg/dL | Mortality (died/total) (normal rats; 3 day): 8/9 | Kidney size (normal rats; [3]): enlarged | Kidney weight (normal rats; [3]): increased | BUN (normal rats; BCD 0.75%, 1d, n = 6): 79.4 mg/dL | Final body weight Wt (f) (normal rats; BCD 0.75%, 1d, n = 6): 218 g | Initial body weight Wt (i) (normal rats; BCD 0.75%, 1d, n = 6): 223 g | Left kidney weight (Lt kd) (normal rats; BCD 0.75%, 1d, n = 6): 1272 mg | Left kidney/body weight (Lt kd/wt) (normal rats; BCD 0.75%, 1d, n = 6): 5.83 mg/g | Right kidney weight (Rt kd) (normal rats; BCD 0.75%, 1d, n = 6): 1307 mg | Right kidney/body weight (Rt kd/wt) (normal rats; BCD 0.75%, 1d, n = 6): 5.98 mg/g | Rats died of kidney failure (normal rats; BCD 1d Group): One rat | Rats died of kidney failure (normal rats; BCD 3d Group (nine rats)): all but two of the nine rats | mortality at 24 h ([1]; 1d, n = 6): 16.7% | mortality at 72 h ([1]; 3d, n = 9): 77.8%
